Patent US11840686B2, “Modulation of prekallikrein (PKK) expression” (Ionis Pharmaceuticals, Inc., priority 2013, dated 2023)
Strand notation (5' to 3'): a small letter for the sugar, then the base; units joined by * are phosphorothioate-linked, units joined directly phosphodiester-linked; [ ] holds rarer units or linkages, { } end groups; capitals alone tell only the bases. e = 2'-O-(2-methoxyethyl) (MOE); [5mC] = 5-methylcytosine; d = 2'-deoxy (DNA)

These substances were tested on human PKK mRNA (assay: Antisense inhibition of human PKK mRNA in HepaRG cells, 5,000 nM (Example 2)). Conditions: HepaRG cells, 5,000 nM antisense oligonucleotide; 5-10-5 gapmers; Table 16.
Assay type: cell-based
Procedure, shortened: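 Percent inhibition of PKK mRNA is relative to untreated control, with qRT-PCR (probe set RTS3454) values adjusted to total RNA by RIBOGREEN. Oligonucleotides, fully phosphorothioate 2′-MOE gapmers, were delivered at 5,000 nM by electroporation into 20,000 HepaRG cells/well for about 24 h.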

Substance | % inhibition [%]
547707 (antisense eT*eG*eA*eA*eA*dA*dG*d[5mC]*d[5mC]*dA*d[5mC]*dG*d[5mC]*d[5mC]*d[5mC]*eT*eT*eA*eG*e[5mC]) [compound 547707] | 32
547687 (antisense eA*e[5mC]*eT*eG*eT*d[5mC]*d[5mC]*dT*dA*dT*dA*dA*d[5mC]*dT*dA*eT*eA*eT*e[5mC]*eA) [compound 547687] | 41

Same assay, conditions: HepaRG cells, 5,000 nM antisense oligonucleotide; 5-10-5 gapmers; Table 17

Substance | % inhibition [%]
547020 (eG*eG*eA*eT*e[5mC]*dG*dG*dT*dG*dG*dT*dG*dG*dG*dA*eT*eT*eG*eG*eT; antisense) [compound 547020] | 47
547000 (eT*e[5mC]*eT*eG*eT*dT*dA*d[5mC]*d[5mC]*dT*dT*dG*dA*dG*dG*eA*eT*eT*eG*eT; antisense) [compound 547000] | 63
547729 (eG*eT*eG*eA*eG*dA*dT*dT*dG*dG*dT*dG*dG*dT*dG*eG*eG*eT*eG*eG; antisense) [compound 547729] | 45
547055 (eG*e[5mC]*eT*e[5mC]*e[5mC]*dT*dG*dG*d[5mC]*dA*dG*d[5mC]*dA*dA*dT*eG*eA*e[5mC]*e[5mC]*e[5mC]; antisense) [compound 547055] | 70
547727 (eT*eG*eG*e[5mC]*eA*dG*dG*dA*dT*dT*dG*dG*dT*dG*dG*eT*eG*eG*eA*eA; antisense) [compound 547727] | 0

Same assay, conditions: HepaRG cells, electroporation with 5,000 nM antisense oligonucleotide, approximately 24 hours, PKK mRNA by RT-PCR (RTS3454), relative to untreated control cells; Table 5 experiment

Substance | % inhibition [%]
546136 (eG*eG*eA*eG*eG*dT*dG*dA*dG*dT*d[5mC]*dT*d[5mC]*dT*dT*eG*eT*e[5mC]*eA*e[5mC]; antisense) [compound 546136] | 86
547284 (antisense eA*eA*eA*eT*eG*dA*dA*dA*dT*dA*dA*dG*dT*dT*dG*e[5mC]*eT*eT*eG*e[5mC]) [compound 547284] | 26
546143 (eG*eG*eA*eA*eA*d[5mC]*dT*dG*dT*dA*dG*d[5mC]*dA*dA*dA*e[5mC]*eA*eA*eG*eG; antisense) [compound 546143] | 46
547283 (antisense eA*eG*eT*eT*eG*d[5mC]*dT*dT*dG*d[5mC]*dT*dT*dG*dA*dA*eT*eA*eA*eA*eA) [compound 547283] | 67
546149 (e[5mC]*e[5mC]*e[5mC]*e[5mC]*eA*d[5mC]*d[5mC]*dT*d[5mC]*dT*dG*dA*dA*dG*dA*eA*eG*eG*e[5mC]*eG; antisense) [compound 546149] | 83
547311 (antisense e[5mC]*eA*e[5mC]*eT*eA*dT*d[5mC]*dT*dT*dT*d[5mC]*dA*dA*dG*dA*eA*eG*e[5mC]*eA*eA) [compound 547311] | 71

Same assay, conditions: HepaRG cells, electroporation with 5,000 nM antisense oligonucleotide, approximately 24 hours, PKK mRNA by RT-PCR (RTS3454), relative to untreated control cells; Table 6 experiment

Substance | % inhibition [%]
547359 (e[5mC]*eG*eG*eG*eA*d[5mC]*dT*dG*dT*dA*d[5mC]*dT*dT*dT*dA*eA*eT*eA*eG*eG; antisense) [compound 547359] | 81
546209 (antisense eG*e[5mC]*eT*eT*e[5mC]*dA*dG*dT*dG*dA*dG*dA*dA*dT*d[5mC]*e[5mC]*eA*eG*eA*eT) [compound 546209] | 73

Same assay, conditions: HepaRG cells, electroporation, 5,000 nM antisense oligonucleotide, approx. 24 hours, primer probe set RTS3454, relative to untreated control cells; Table 11

Substance | % inhibition [%]
547509 (antisense e[5mC]*e[5mC]*e[5mC]*e[5mC]*e[5mC]*d[5mC]*dA*dG*dG*d[5mC]*dT*d[5mC]*dA*dG*dA*eA*eT*eT*eT*eG) [compound 547509] | 58

Same assay, conditions: HepaRG cells, electroporation, 5,000 nM antisense oligonucleotide, approx. 24 hours, primer probe set RTS3454, relative to untreated control cells; Table 12

Substance | % inhibition [%]
546503 (eG*eT*eG*eA*eT*dG*d[5mC]*dG*dA*dT*dT*dT*dT*d[5mC]*d[5mC]*eA*eT*eG*e[5mC]*eA; antisense) [compound 546503] | 53
546508 (eG*e[5mC]*eA*eG*e[5mC]*dA*dA*dG*dT*dG*d[5mC]*dT*d[5mC]*d[5mC]*d[5mC]*e[5mC]*eA*eT*eG*e[5mC]; antisense) [compound 546508] | 43
547541 (antisense eT*eA*eT*eA*eG*dA*dT*dG*dT*dT*dT*dA*dT*dT*dG*eT*eA*eG*e[5mC]*e[5mC]) [compound 547541] | 36
547557 (e[5mC]*eT*eG*eT*eG*d[5mC]*dT*dG*dT*dA*dT*dT*dT*dT*dG*eG*eA*eG*e[5mC]*e[5mC]; antisense) [compound 547557] | 59

Same assay, conditions: Table 7; HepaRG cells, electroporation with 5,000 nM antisense oligonucleotide, approx. 24 hours; PKK mRNA by RT-PCR (RTS3454), relative to untreated control cells

Substance | % inhibition [%]
546229 (antisense eA*e[5mC]*eA*eT*eT*dT*d[5mC]*dT*dT*dT*dG*dT*dG*dA*d[5mC]*eT*e[5mC]*eG*eA*eT) [compound 546229] | 19
546250 (e[5mC]*eA*eT*eT*e[5mC]*dA*dA*dT*dT*d[5mC]*dT*dT*d[5mC]*dT*d[5mC]*e[5mC]*eT*e[5mC]*e[5mC]*eA; antisense) [compound 546250] | 65
547381 (eT*eG*eT*eG*eA*d[5mC]*dT*d[5mC]*dG*dA*dT*dT*dT*dT*d[5mC]*e[5mC]*eA*eT*eA*e[5mC]; antisense) [compound 547381] | 49

Same assay, conditions: Table 8; HepaRG cells, electroporation with 5,000 nM antisense oligonucleotide, approx. 24 hours; PKK mRNA by RT-PCR (RTS3454), relative to untreated control cells

Substance | % inhibition [%]
546259 (eA*e[5mC]*eT*eG*eA*d[5mC]*dA*dG*d[5mC]*dG*dA*dA*dT*d[5mC]*dA*eT*e[5mC]*eT*eT*eT; antisense) [compound 546259] | 86
546279 (eG*e[5mC]*eT*e[5mC]*e[5mC]*d[5mC]*dT*dT*dG*dT*dG*dT*d[5mC]*d[5mC]*d[5mC]*eA*eT*eA*e[5mC]*eG; antisense) [compound 546279] | 82
547412 (eA*eT*e[5mC]*eA*eT*d[5mC]*dT*dT*dT*dG*dT*dG*d[5mC]*dA*dA*eG*eT*e[5mC]*eT*e[5mC]; antisense) [compound 547412] | 73
546302 (antisense eT*eG*eA*eG*eA*dA*dA*dG*dG*dT*dG*dT*dA*dT*d[5mC]*eT*eT*eT*eT*eG) [compound 546302] | 87
547440 (antisense eT*e[5mC]*e[5mC]*eT*eA*dT*dG*dA*dG*dT*dG*dA*d[5mC]*d[5mC]*d[5mC]*eT*e[5mC]*e[5mC]*eA*e[5mC]) [compound 547440] | 67

Same assay, conditions: Table 9 experiment; HepaRG cells, 20,000 cells per well, electroporation with 5,000 nM antisense oligonucleotide, approx. 24 hours; PKK mRNA by RT-PCR (RTS3454), relative to untreated control cells

Substance | % inhibition [%]
546348 (antisense eG*e[5mC]*eA*eA*eA*d[5mC]*dT*dA*dA*dG*dG*dG*dA*d[5mC]*d[5mC]*eA*e[5mC]*e[5mC]*eT*eG) [compound 546348] | 79
547470 (antisense eT*e[5mC]*eG*eA*eG*dA*dA*dG*d[5mC]*d[5mC]*d[5mC]*d[5mC]*dA*dT*d[5mC]*e[5mC]*eG*eG*eT*eT) [compound 547470] | 70
546323 (antisense eG*eT*eG*e[5mC]*eT*dT*dG*dT*dG*dT*d[5mC]*dA*d[5mC]*d[5mC]*dT*eT*eT*eG*eG*eA) [compound 546323] | 94

Same assay, conditions: Table 10 experiment; HepaRG cells, 20,000 cells per well, electroporation with 5,000 nM antisense oligonucleotide, approx. 24 hours; PKK mRNA by RT-PCR (RTS3454), relative to untreated control cells

Substance | % inhibition [%]
546348 (antisense eG*e[5mC]*eA*eA*eA*d[5mC]*dT*dA*dA*dG*dG*dG*dA*d[5mC]*d[5mC]*eA*e[5mC]*e[5mC]*eT*eG) [compound 546348] | 76
547470 (antisense eT*e[5mC]*eG*eA*eG*dA*dA*dG*d[5mC]*d[5mC]*d[5mC]*d[5mC]*dA*dT*d[5mC]*e[5mC]*eG*eG*eT*eT) [compound 547470] | 68
546323 (antisense eG*eT*eG*e[5mC]*eT*dT*dG*dT*dG*dT*d[5mC]*dA*d[5mC]*d[5mC]*dT*eT*eT*eG*eG*eA) [compound 546323] | 80

Same assay, conditions: Table 13; human PKK mRNA in HepaRG cells; 5-10-5 gapmers

Substance | % inhibition [%]
546838 (e[5mC]*eT*eA*eT*eA*dA*d[5mC]*dT*d[5mC]*dT*dA*dA*d[5mC]*dA*dG*eT*eA*eT*e[5mC]*eA; antisense) [compound 546838] | 43
546836 (eA*eT*eA*eA*e[5mC]*dT*d[5mC]*dT*dA*dA*d[5mC]*dA*dG*dT*dA*eT*e[5mC]*eA*e[5mC]*eT; antisense) [compound 546836] | 30

Same assay, conditions: human PKK mRNA in HepaRG cells; 5-10-5 gapmers; Table 14

Substance | % inhibition [%]
547603 (antisense eT*eA*eT*e[5mC]*eA*d[5mC]*dT*dG*dT*dA*d[5mC]*d[5mC]*dT*dA*dT*eA*eA*e[5mC]*eT*e[5mC]) [compound 547603] | 41
546860 (e[5mC]*eT*eA*eG*eT*dT*dT*d[5mC]*d[5mC]*dT*dA*dT*dA*dA*d[5mC]*eT*eA*eT*eA*eA; antisense) [compound 546860] | 36
547607 (antisense eT*eA*eA*e[5mC]*eA*dA*dT*dA*dT*d[5mC]*dA*d[5mC]*dT*dG*dT*eA*e[5mC]*e[5mC]*eT*eA) [compound 547607] | 49
546850 (eT*eA*eT*e[5mC]*eA*d[5mC]*dT*dG*dT*d[5mC]*d[5mC]*dT*dA*dT*dA*eT*e[5mC]*eA*e[5mC]*eT; antisense) [compound 546850] | 80

Same assay, conditions: human PKK mRNA, HepaRG cells, 5,000 nM antisense oligonucleotide, Table 18

Substance | % inhibition [%]
548730 (DNA eT*eG*eT*eA*d[5mC]*dT*dA*dG*dT*dT*dT*d[5mC]*d[5mC]*dT*eA*eT*eA; antisense) [compound 548730] | 0
548763 (antisense e[5mC]*eT*e[5mC]*eT*dA*dA*d[5mC]*dA*dG*dT*dA*dT*d[5mC]*eA*e[5mC]*eT*eG) [compound 548763] | 44
548762 (antisense eT*e[5mC]*eT*eA*dA*d[5mC]*dA*dG*dT*dA*dT*d[5mC]*dA*e[5mC]*eT*eG*eT) [compound 548762] | 16

Same assay, conditions: human PKK mRNA, HepaRG cells; 5-10-5 motif oligonucleotides targeting SEQ ID NO: 1 and 10

Substance | % inhibition [%]
546910 (eT*eA*eA*e[5mC]*eA*dA*dT*dA*dT*d[5mC]*dA*d[5mC]*dT*dG*dT*eA*e[5mC]*e[5mC]*eT*eT; antisense) [compound 546910] | 82
547671 (e[5mC]*eT*eA*e[5mC]*eA*dA*d[5mC]*dT*dA*dT*dA*dA*d[5mC]*dA*dG*eT*eA*eT*e[5mC]*eA; antisense) [compound 547671] | 0
